According to patent publication US12479877B2, “Methods for purifying steviol glycosides and uses of the same” (PureCircle Sdn. Bhd., priority 2010, dated 2025):
Entries after “also recorded” stand apart in the source; their conditions may differ.

Columns and labels:
Assay type in all cases: in vivo, human
[1] = test system: panelists; test: Sensory properties in acidified water (pH 3.0) at 500 mg/L, 20 panelists; details: 500 ppm, acidified water pH 3.0, 20 panelists
Protocol: The sensory properties of Reb X were evaluated in acidified water (pH 3.0 by phosphoric acid) at 500 mg/L concentration by 20 panelists.

[2] = test system: panelists; test: as above; details: 10,000 ppm, acidified water pH 3.0, 20 panelists
[3] = test system: one experienced panelist; test: Taste evaluation of Reb X against Reb A and Reb D, multi-sip and swallow taste method; details: for Taste Properties: 500 ppm in citric buffer (pH 3.22), room temperature
Protocol: The taste properties of a sample of Reb X were studied against Rebaudioside A (Reb A) and Rebaudioside D (Rb D) samples. Rb A was obtained from Cargill (lot #1040) and Reb-D was obtained from PureCircle (lot #11/3/08).
The samples were prepared at 500 ppm for sweetness evaluation by adding moisture compensated mass into a 100 mL sample of carbon-treated water and citric buffer solutions.
Citric buffer was prepared by mixing 1.171 g/L citric acid, 0.275 g/L sodium citrate and 0.185 g/L sodium benzoate with carbon-treated water, with a final pH of 3.22. The mixtures were moderately stirred at room temperature. The Reb X sample was then evaluated against the two control Reb A and Reb D samples in water and citric buffer at room temperature (RT) and at 4° C. in an ice bath by one experienced panelist for any tasting quality determinations using the controlled, multi-sip and swallow taste method shown below:
1. Take first sip (˜1.8 mL) of control and swallow. Wait for 15-25 sec, then take second sip of control and wait for 15-25 sec.
2. Take first sip of the experimental sample, wait for 15-25 sec, then take second sip. Compare to second sip of control.
3. Repeat steps #1 and #2 for the third and fourth sips of the control and experimental samples to confirm the initial finding.
The taste evaluation results of the Reb X samples against the control Reb A and Reb D samples at 500 ppm in citric buffer (CB) at 4° C. and RT are described in Table 4.

SMILES | Astringent taste: Number of panelists detected the attribute [1] | Bitter taste: Number of panelists detected the attribute [1] | Licorice taste: Number of panelists detected the attribute [1] | Overall evaluation: Satisfactory (number of panelists of 20) [1] | Quality of sweet taste: Bitter aftertaste (number of panelists of 20) [1] | Sweet Aftertaste: Number of panelists detected the attribute [1] | Astringent taste: Number of panelists detected the attribute [2] | Bitter taste: Number of panelists detected the attribute [2] | Licorice taste: Number of panelists detected the attribute [2] | Overall evaluation: Satisfactory (number of panelists of 20) [2] | Quality of sweet taste: Clean (number of panelists of 20) [2] | Sweet Aftertaste: Number of panelists detected the attribute [2] | Taste Properties [3] | Astringency, sweetness intense (depth) and bitterness notes ([3]; 500 ppm, citrate buffer system, compared with Reb A)
C=C1C[C@@]23CC[C@H]4[C@@](C)(CCC[C@@]4(C)C(=O)O[C@@H]4O[C@H](CO)[C@@H](O)[C@H](O)[C@H]4O)[C@@H]2CC[C@]1(O[C@@H]1O[C@H](CO)[C@@H](O)[C@H](O)[C@H]1O[C@@H]1O[C@H](CO)[C@@H](O)[C@H](O)[C@H]1O)C3 [Stevioside] | 20 | 20 | 20 | (0 of 20) | (20 of 20) | 20 |  |  |  |  |  |  |  | 
OC[C@H]1O[C@@](CO)(O[C@H]2O[C@H](CO)[C@@H](O)[C@H](O)[C@H]2O)[C@@H](O)[C@@H]1O [Sucrose] |  |  |  |  |  |  | 0 | 0 | 0 | (20 of 20) | Clean (20 | 0 |  | 
C=C1C[C@@]23CC[C@H]4[C@@](C)(CCC[C@@]4(C)C(=O)O[C@@H]4O[C@H](CO)[C@@H](O)[C@H](O)[C@H]4O[C@@H]4O[C@H](CO)[C@@H](O)[C@H](O)[C@H]4O)[C@@H]2CC[C@]1(O[C@@H]1O[C@H](CO)[C@@H](O)[C@H](O[C@@H]2O[C@H](CO)[C@@H](O)[C@H](O)[C@H]2O)[C@H]1O[C@@H]1O[C@H](CO)[C@@H](O)[C@H](O)[C@H]1O)C3 [Reb D, Rebaudioside D] | 3 | 3 | 2 | (11 of 20) |  | 5 |  |  |  |  |  |  | Delayed sweetness onset, less sweetness linger as compared to Reb; also recorded: A, no bitter off-notes | did not have the astringency or sweetness intense (depth) and bitterness notes compared to that of the Reb A
C=C1C[C@@]23CC[C@H]4[C@@](C)(CCC[C@@]4(C)C(=O)O[C@@H]4O[C@H](CO)[C@@H](O)[C@H](O)[C@H]4O)[C@@H]2CC[C@]1(O[C@@H]1O[C@H](CO)[C@@H](O)[C@H](O[C@@H]2O[C@H](CO)[C@@H](O)[C@H](O)[C@H]2O)[C@H]1O[C@@H]1O[C@H](CO)[C@@H](O)[C@H](O)[C@H]1O)C3 [Reb A, Rebaudioside A] | 20 | 20 | 20 | (1 of 20) | (20 of 20) | 20 |  |  |  |  |  |  | Delayed sweetness onset, significant lingering sweet aftertaste,; also recorded: licorice and bitter off-notes | 
